Activity calls are given as the source filed them.
Assays:
[1] = test system: HEK293; test: inhibition of NOD1-driven NF-kB reporter – cell-based, luminescence, uHTS, primary screen (AID 1578); assay type: functional; conditions: Homo sapiens
[2] = target: Nucleotide-binding oligomerization domain-containing protein 2 (Homo sapiens, UniProt Q9HC29); test: inhibition of NOD2-driven NF-kB reporter – cell-based, luminescence, uHTS, HEK293 (AID 1566); assay type: functional
[3] = test system: HEK293; test: cells; assay type: functional, cell-based; conditions: Homo sapiens
[4] = HEK-293T cell viability reduction – luminescence, B-cell screen hits, cytotoxicity control for BCR NF-kB inhibitor project, dose response (AID 489021); assay type: functional, cell-based;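 also: HEK-293T cells carrying an NF-kB luciferase reporter; cells exposed to compound for about 14 hours before viability readout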
[5] = fluconazole-exposed Candida albicans growth modulators – fluorescence, retest, confirmation (AID 2467); assay type: functional, cell-based
[6] = test system: HEK293; test: cells; assay type: functional, cell-based; conditions: Homo sapiens; remark: listed apart in the source
[7] = test system: HEK293; test: NOD2 signaling inhibitors in MDP-stimulated cells, cell-based, uHTS, luminescence (AID 2001); assay type: functional; conditions: Homo sapiens
[8] = NIH-3T3 fibroblast cytotoxicity, dose response, cytotoxicity control, cell-based, fluorescence, Alamar Blue, secondary assay (AID 2327); assay type: functional;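 also: NIH-3T3 mouse fibroblasts cultured with fluconazole at 8 µg/mL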
[9] = test system: INS1; test: INS-1E survival protection against cytokine death – cell-based, luminescence, retest, dose response (AID 449756); assay type: functional; conditions: Rattus norvegicus, INS1;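 also: cell death triggered by IL-1 beta plus TNF-alpha plus IFN-gamma mixture; protective hits raise ATP signal compared with cytokine alone wells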
[10] = test system: HEK293; test: cells; assay type: functional, cell-based; conditions: Homo sapiens; remark: listed apart in the source
[11] = target: Neutrophil collagenase (Homo sapiens, UniProt P22894); test: potency against MMP13, MMP2, MMP3, MMP14 – biochemical, probe development, late stage results, selectivity assay for MMP13 inhibitor project, late-stage follow-up, panel member MMP-8 [IC50 Assay] (AID 2067)
[12] = target: T1, High affinity choline transporter 1 (Homo sapiens, UniProt Q9GZV3); test: human choline transporter blockers, potency – cell-based, 5-point CRC, membrane potential dye, dose response (AID 504840); assay type: functional
T1 sequence (Q9GZV3 whole entry): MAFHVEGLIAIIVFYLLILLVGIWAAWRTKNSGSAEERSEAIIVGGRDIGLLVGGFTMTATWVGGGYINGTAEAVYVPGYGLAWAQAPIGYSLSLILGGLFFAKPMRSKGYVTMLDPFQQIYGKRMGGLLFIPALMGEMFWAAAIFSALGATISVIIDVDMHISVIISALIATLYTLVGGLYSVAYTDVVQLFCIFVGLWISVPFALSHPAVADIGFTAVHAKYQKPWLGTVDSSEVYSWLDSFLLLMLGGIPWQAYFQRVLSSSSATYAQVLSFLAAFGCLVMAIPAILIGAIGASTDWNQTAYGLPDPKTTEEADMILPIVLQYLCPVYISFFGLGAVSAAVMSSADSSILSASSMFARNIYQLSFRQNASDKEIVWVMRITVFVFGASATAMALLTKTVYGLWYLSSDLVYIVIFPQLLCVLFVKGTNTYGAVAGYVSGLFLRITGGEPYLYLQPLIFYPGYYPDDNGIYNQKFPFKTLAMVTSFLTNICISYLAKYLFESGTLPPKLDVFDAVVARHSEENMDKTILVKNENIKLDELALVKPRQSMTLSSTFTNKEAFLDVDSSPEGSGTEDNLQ

[13] = microbe, parasite or virus in culture; assay type: functional; conditions: Mycobacterium tuberculosis
[14] = target: Neurotensin receptor type 1 (Homo sapiens, UniProt P30989); assay type: functional;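 also: Image-based confirmatory dose-response assay measuring agonist activity at NTR1; NTR1-expressing U2OS osteosarcoma cells imaged for beta-arrestin GFP spot formation; agonist potency where compounds increase beta-arrestin recruitment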
[15] = cells; assay type: functional, cell-based; conditions: PPC-1
[16] = test system: MDA-MB-435; test: cells; assay type: functional, cell-based; conditions: Homo sapiens
[17] = target: X-box-binding protein 1 (Homo sapiens, UniProt P17861); assay type: functional, Cricetulus griseus;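 also: confirmatory dose-response counter-screen serving a CHOP assay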
[18] = target: DNA damage-inducible transcript 3 protein (Mus musculus, UniProt P35639); assay type: functional, Cricetulus griseus
[19] = target: NACHT, LRR and PYD domains-containing protein 3 (Homo sapiens, UniProt Q96P20); test: NALP3 inhibitors in yeast, dose response, luminescent (AID 488799); assay type: functional
[20] = Cytotoxicity screening for potential Inhibitors of Bacterial Capsule Biogenesis. [Related pubchem assays (depositor defined):AID488970]; assay type: functional
[21] = protection from phage-mediated lysis, alamar blue read-out – E. coli UTI89, K1F phage, bacterial capsule biogenesis inhibitors (AID 488966); assay type: functional
[22] = target: Voltage-dependent T-type calcium channel subunit alpha-1H (Homo sapiens, UniProt O95180); test: human CACNA1H calcium influx blockade – cell-based, synthetic library set 1, calcium flux (AID 493022); assay type: functional
[23] = blockers of SFLLRN-triggered platelet ATP secretion – cell-based, human platelets, luminescence, dry powder, dose response (AID 493100); assay type: functional
[24] = target: Luciferin 4-monooxygenase (Photinus pyralis, UniProt P08659); test: inhibition of purified Photinus pyralis luciferase – biochemical, luminescence, dose response (AID 1891)
[25] = Luminescence Cell-Based Dose Confirmation HTS to Identify Inhibitors of Platelet Dense Granule Release. [Related pubchem assays: 1663 (Primary HTS), 1678 (Summary of Project)]; assay type: functional
[26] = target: Metabotropic glutamate receptor 4 (Homo sapiens, UniProt Q14833); test: Modulation of the Metabotropic Glutamate Receptor mGluR4: Potency at human mGluR4. Modulation of intracellular Ca2+ using Fluo-4, AM, in CHO expressing recombinant receptor [Related pubchem assays (depositor defined):AID2437, AID2807]; assay type: functional, cell-based
[27] = target: T2, Replicative DNA helicase DnaB (Mycobacterium tuberculosis, UniProt P9WMR3); test: DnaB intein splicing inhibitors, dose response, biochemical, cell-free fluorescence (AID 449749); assay type: functional
T2 sequence (P9WMR3 whole entry): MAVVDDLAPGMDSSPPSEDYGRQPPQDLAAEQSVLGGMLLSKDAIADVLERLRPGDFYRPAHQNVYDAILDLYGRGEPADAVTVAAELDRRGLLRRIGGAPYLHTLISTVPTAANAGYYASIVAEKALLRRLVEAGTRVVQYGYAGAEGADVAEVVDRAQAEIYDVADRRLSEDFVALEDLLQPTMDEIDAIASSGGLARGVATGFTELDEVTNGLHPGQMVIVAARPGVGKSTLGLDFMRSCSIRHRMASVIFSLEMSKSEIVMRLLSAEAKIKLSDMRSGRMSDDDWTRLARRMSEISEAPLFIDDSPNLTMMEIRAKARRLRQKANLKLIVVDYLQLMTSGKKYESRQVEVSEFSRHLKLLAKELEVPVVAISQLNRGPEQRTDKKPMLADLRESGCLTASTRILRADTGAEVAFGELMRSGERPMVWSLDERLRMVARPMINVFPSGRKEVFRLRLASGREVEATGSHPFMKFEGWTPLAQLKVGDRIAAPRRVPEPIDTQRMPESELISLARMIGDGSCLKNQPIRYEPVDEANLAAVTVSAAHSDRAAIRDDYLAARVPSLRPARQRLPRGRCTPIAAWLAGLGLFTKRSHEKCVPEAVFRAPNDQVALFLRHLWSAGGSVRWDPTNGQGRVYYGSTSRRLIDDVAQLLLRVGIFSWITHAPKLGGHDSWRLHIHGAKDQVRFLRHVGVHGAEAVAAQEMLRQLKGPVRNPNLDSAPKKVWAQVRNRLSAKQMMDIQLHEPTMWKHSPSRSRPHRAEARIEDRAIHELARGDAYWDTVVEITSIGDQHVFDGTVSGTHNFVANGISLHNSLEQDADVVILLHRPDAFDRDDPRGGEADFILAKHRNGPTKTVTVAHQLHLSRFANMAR

[28] = target: Genome polyprotein (dengue virus type 2, UniProt P29990); test: flavivirus cap methylation enzyme inhibition – biochemical, confirmation dose response, primary screen (AID 588689); assay type: functional
[29] = target: T3, Protein RecA (Mycobacterium tuberculosis, UniProt P9WHJ3); test: Fluorescence Cell-Free Homogeneous Dose Retest to Identify Inhibitors of RecA-Intein Splicing Activity. [Related pubchem assays (depositor defined):AID2097, AID2223, AID489010, AID492950]; assay type: functional
T3 sequence (P9WHJ3 whole entry): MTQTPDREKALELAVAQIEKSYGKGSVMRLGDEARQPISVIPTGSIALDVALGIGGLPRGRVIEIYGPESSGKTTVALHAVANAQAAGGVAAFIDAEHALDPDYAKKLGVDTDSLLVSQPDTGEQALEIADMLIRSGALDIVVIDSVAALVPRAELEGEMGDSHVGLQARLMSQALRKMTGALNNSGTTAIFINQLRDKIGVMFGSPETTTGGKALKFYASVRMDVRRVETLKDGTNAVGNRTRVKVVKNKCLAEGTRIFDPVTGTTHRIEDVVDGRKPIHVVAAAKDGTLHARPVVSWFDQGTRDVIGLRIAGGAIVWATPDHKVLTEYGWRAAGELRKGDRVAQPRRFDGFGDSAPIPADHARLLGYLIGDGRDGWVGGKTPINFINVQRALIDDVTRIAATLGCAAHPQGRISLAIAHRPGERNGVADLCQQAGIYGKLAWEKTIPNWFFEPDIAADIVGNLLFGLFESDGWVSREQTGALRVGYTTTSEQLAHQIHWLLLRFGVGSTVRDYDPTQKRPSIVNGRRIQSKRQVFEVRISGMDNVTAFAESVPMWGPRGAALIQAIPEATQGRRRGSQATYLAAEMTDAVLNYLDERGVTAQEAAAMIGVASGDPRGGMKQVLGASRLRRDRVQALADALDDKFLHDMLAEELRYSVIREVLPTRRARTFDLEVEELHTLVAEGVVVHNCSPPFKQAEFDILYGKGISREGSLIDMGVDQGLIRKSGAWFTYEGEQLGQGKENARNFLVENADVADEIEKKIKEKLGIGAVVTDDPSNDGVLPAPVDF

[30] = target: Cytochrome P450 3A4 (Homo sapiens, UniProt P08684); conditions: Potency;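 also: confirmatory qHTS run detecting inhibitors and substrates of CYP3A4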
[31] = target: Envelope glycoprotein gp160 (Human immunodeficiency virus 1, UniProt Q6QLK5); test: cell-free HIV fusion peptide-binding blockers – biochemical, uHTS, fluorescence dequenching, […] (AID 1986)
[32] = target: T4, SUMO-activating enzyme (Homo sapiens, UniProt Q9UBT2); test: blockers of UBC9-mediated SUMO conjugation – biochemical, AlphaScreen, SUMOylation inhibitor project, confirmation (AID 2018); assay type: functional
[33] = target: T4, SUMO-activating enzyme; test: blockers of SAE1/SAE2–UBC9 SUMO transfer – biochemical, HTRF, uHTS, primary screen (AID 2006); assay type: protein-complex assay

T4 sequence (Q9UBE0 whole entry): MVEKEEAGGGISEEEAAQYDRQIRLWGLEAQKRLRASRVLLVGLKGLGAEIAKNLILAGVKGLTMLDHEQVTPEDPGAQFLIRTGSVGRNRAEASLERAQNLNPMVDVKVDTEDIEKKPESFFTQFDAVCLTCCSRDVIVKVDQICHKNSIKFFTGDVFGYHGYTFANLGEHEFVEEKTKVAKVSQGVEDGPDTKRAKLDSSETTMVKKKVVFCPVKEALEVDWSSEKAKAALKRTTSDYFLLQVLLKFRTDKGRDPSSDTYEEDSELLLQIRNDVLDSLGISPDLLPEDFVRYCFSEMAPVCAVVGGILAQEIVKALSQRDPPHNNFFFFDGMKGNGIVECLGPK
T4 sequence (Q9UBT2 whole entry): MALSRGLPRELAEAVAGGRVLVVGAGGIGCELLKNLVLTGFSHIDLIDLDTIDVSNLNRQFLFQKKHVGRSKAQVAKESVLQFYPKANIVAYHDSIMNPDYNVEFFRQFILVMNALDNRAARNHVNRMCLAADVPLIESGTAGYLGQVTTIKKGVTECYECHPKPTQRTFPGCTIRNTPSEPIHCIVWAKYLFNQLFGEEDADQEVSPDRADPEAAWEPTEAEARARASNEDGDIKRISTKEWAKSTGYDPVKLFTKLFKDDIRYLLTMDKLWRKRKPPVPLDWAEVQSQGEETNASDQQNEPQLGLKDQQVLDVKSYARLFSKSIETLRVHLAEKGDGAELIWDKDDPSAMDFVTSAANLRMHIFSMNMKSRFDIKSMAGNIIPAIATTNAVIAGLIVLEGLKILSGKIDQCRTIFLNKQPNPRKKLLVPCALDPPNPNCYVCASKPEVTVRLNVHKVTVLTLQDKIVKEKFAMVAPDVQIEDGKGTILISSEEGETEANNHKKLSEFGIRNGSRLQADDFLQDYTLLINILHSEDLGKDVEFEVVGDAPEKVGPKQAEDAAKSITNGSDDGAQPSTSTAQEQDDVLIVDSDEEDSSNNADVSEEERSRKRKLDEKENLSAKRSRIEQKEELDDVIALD
Chain of Nucleotide-binding oligomerization domain-containing protein 2 (Q9HC29 whole entry, the tested form may be a part): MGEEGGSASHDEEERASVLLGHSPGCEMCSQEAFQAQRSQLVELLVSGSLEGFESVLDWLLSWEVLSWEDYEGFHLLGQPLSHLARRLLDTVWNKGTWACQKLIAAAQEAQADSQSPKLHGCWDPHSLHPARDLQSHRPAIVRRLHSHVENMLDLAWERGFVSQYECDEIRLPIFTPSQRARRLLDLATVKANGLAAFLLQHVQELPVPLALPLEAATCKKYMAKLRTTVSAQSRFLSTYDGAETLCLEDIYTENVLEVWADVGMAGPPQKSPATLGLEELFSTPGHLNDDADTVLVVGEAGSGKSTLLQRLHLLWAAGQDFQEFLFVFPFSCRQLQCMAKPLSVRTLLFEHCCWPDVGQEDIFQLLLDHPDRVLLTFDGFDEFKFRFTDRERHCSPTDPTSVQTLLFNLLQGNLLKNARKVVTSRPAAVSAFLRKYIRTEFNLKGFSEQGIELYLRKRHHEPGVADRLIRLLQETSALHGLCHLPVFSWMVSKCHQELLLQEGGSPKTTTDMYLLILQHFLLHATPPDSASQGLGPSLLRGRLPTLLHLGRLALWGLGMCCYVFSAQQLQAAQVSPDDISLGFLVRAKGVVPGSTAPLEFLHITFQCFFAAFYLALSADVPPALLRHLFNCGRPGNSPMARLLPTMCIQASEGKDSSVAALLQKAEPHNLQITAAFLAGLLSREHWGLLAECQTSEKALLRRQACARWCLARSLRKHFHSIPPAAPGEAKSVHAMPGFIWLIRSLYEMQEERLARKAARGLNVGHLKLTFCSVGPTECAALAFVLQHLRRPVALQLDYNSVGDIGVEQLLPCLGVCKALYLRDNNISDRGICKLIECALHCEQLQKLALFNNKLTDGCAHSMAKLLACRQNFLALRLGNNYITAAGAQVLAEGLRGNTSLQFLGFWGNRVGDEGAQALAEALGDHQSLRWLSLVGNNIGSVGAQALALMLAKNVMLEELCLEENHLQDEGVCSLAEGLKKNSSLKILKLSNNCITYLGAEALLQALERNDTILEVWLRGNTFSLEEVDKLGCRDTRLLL
Chain of Metabotropic glutamate receptor 4 (Q14833 whole entry): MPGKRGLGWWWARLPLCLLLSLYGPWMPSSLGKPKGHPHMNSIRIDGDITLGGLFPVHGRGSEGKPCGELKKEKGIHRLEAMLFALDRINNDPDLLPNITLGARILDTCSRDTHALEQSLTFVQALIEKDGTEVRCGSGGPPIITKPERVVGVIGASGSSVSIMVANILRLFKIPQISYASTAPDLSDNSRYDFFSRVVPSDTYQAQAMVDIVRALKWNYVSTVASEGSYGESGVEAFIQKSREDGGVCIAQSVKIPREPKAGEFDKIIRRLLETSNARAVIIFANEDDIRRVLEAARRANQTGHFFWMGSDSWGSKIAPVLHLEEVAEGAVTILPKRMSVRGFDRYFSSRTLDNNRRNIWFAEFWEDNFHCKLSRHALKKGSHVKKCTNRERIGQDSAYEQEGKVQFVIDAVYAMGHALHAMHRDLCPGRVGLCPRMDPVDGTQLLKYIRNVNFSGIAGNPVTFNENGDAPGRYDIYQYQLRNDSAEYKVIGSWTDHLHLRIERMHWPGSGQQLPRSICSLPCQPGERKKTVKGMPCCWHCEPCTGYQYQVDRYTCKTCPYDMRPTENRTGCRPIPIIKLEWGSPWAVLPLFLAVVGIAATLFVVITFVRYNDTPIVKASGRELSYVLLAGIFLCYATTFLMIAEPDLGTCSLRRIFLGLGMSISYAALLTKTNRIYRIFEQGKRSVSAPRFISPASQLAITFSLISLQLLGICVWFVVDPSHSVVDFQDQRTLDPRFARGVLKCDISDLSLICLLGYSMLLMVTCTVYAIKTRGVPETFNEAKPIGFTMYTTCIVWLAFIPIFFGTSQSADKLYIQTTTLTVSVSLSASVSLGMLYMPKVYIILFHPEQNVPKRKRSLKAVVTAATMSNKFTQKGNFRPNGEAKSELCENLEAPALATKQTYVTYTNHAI
Chain of Cytochrome P450 3A4 (P08684 whole entry, the tested form may be a part): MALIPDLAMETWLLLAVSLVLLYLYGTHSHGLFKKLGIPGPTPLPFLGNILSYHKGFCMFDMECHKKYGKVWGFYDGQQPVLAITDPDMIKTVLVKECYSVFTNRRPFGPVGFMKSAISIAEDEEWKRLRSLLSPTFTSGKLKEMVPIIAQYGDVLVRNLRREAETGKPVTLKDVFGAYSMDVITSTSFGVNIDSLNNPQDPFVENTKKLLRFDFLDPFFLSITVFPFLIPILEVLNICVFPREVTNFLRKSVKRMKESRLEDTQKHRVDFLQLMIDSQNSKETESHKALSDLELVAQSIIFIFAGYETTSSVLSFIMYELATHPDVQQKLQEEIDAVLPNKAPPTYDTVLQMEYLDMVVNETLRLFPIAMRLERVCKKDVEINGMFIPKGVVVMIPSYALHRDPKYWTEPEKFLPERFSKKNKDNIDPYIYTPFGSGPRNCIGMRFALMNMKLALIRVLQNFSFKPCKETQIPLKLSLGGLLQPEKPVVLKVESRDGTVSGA
Chain of Neutrophil collagenase (P22894 whole entry): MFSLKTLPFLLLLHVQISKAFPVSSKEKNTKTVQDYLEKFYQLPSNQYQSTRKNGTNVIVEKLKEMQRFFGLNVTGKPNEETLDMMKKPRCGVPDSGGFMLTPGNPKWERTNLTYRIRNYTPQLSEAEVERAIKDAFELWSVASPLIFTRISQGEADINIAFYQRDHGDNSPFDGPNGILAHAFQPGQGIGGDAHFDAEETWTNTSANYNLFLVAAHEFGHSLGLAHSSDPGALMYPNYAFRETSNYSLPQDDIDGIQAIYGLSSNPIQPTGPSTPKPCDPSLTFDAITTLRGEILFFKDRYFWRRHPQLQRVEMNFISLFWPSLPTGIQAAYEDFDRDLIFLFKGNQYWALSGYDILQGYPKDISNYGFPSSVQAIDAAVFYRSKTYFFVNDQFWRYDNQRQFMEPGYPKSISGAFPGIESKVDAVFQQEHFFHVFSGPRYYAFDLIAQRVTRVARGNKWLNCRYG
Chain of NACHT, LRR and PYD domains-containing protein 3 (Q96P20 whole entry, the tested form may be a part): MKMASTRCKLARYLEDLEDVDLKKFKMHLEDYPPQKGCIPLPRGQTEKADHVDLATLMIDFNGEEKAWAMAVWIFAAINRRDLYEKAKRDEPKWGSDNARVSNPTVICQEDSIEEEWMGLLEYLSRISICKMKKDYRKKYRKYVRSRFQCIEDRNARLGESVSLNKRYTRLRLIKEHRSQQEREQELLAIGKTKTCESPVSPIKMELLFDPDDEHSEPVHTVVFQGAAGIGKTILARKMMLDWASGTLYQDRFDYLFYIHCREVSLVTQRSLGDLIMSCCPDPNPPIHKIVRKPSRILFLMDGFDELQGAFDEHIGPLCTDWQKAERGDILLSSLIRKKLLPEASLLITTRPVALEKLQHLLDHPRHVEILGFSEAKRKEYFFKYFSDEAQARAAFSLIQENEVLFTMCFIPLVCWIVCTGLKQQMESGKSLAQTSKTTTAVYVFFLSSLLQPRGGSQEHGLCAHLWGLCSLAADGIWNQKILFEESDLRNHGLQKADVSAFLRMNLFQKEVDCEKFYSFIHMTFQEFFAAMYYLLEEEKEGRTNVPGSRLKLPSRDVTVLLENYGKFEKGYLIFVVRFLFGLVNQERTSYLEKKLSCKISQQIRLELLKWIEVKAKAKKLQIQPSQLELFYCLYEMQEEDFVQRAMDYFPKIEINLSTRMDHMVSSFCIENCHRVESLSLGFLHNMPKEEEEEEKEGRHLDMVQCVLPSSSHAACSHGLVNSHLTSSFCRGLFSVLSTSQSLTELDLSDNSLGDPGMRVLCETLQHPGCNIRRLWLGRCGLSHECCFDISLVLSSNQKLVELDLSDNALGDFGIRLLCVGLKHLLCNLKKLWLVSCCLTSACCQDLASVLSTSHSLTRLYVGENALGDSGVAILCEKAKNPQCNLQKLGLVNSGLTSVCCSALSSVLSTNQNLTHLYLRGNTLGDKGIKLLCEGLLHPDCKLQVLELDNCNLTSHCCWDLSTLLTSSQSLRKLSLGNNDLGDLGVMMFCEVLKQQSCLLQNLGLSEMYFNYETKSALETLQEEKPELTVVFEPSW

COc1ccc(-c2n(Cc3ccccc3)c3ccccc3[n+]2Cc2ccccc2)cc1
EC50 [1]: 4.23 µM (active) | EC50 [2]: 9.35 µM (active) | IC50 [3]: 11.7 µM (active) | IC50 [4]: > 80 µM (inactive) | EC50 [5]: > 38 µM (not active) | IC50 [6]: > 20 µM (inactive) | IC50 [7]: 3.69 µM (active) | EC50 [8]: > 150 µM (inactive) | AC50 [9]: 3.85 µM (active) | IC50 [10]: 1.21 µM (active)

Cc1ccc(CSc2nc3c(c(=O)[nH]2)CCC3)cc1
IC50 [11]: > 39.8 µM (inactive)

COc1ccc(C(CCN2CCCCC2)c2c(OC)cc(OC)c3c(-c4ccccc4)cc(=O)oc23)cc1 (stereo not given)
IC50 [12]: 12.6 µM (active) | CC50 [13]: 20.5 µM (active) | AC50 [9]: 10.7 µM (active) | EC50 [14]: 14.7 µM (active)

CSc1nc(-c2ccccc2)nc(C(C)C)n1
IC50 [15]: > 10 µM (inactive) | IC50 [16]: > 10 µM (inactive)

O=C(Nc1cccc(C(F)(F)F)c1)NC1CCN(S(=O)(=O)c2ccc(F)cc2)CC1
Absolute IC50 (XBP1) [17]: 10 µM | Absolute IC50 (CHOP) [18]: 10 µM

Cc1onc(-c2ccccc2Cl)c1C(=O)N1C=CC(C(F)(F)F)=NCC1
IC50 [19]: 8.66 µM (active)

Cc1ccc(C2c3c(oc4cc(C)c(C)cc4c3=O)C(=O)N2CCCN2CCOCC2)cc1 (stereo not given)
CC50 [20]: 44.4 µM (active)

O=C(Nc1ccc(N2CCOCC2)cc1)c1ccc2ncsc2c1
IC50 [21]: > 150 µM (active)

O=C(COc1ccc(F)cc1)Nc1nnc(-c2ccc3c(c2)OCO3)o1
EC50 [22]: 10 µM (active)

CCCC(=O)Nc1cccc(NC(=O)c2ccccc2F)c1
AC50 [23]: 31.5 µM (active)

COc1ccc(NC(=O)c2ccccn2)cc1OC
EC50 [24]: > 112 µM (not active) | EC50 [25]: 42.7 µM (active) | EC50 [26]: 3.65 µM (active)

CCCCCc1c2c(cc(O)c1C(=O)O)OC(=O)c1c(cc(OC)cc1C(=O)CCCC)O2 [LOBARIC ACID]
AC50 [27]: 6.47 µM (active) | IC50 [12]: 11 µM (active) | IC50 [28]: 32.2 µM (active) | EC50 [29]: 4.98 µM (active) | AC50 [30]: 25.1 µM (inconclusive) | IC50 [31]: 13.1 µM (active) | IC50 [32]: 6.52 µM (active) | IC50 [33]: 15.3 µM (active)

— ChEMBL document CHEMBL1201862, “PubChem BioAssay data set” (2004)
